Data published in paper PMC8909805, “Anticancer Activity of (S)-5-Chloro-3-((3,5-dimethylphenyl)sulfonyl)-N-(1-oxo-1-((pyridin-4-ylmethyl)amino)propan-2-yl)-1H-indole-2-carboxamide (RS4690), a New Dishevelled 1 Inhibitor” (Cancers, 2022).

biological target: T1, DVL1 binding to FZD4 (Homo sapiens, UniProt O14640); assay: Inhibition of DVL1 (DVL-GFP) recruitment by FZD4 at the plasma membrane of HEK293 cells; format: cell-based; settings: HEK293 cells co-transfected with HA-FZD4 and GFP-DVL-1; 24 h treatment; read-out: EC50 ± SD DVL1 Binding Inhibition
T1 construct: host or cells: HEK293
T1 sequence (O14640 1-695): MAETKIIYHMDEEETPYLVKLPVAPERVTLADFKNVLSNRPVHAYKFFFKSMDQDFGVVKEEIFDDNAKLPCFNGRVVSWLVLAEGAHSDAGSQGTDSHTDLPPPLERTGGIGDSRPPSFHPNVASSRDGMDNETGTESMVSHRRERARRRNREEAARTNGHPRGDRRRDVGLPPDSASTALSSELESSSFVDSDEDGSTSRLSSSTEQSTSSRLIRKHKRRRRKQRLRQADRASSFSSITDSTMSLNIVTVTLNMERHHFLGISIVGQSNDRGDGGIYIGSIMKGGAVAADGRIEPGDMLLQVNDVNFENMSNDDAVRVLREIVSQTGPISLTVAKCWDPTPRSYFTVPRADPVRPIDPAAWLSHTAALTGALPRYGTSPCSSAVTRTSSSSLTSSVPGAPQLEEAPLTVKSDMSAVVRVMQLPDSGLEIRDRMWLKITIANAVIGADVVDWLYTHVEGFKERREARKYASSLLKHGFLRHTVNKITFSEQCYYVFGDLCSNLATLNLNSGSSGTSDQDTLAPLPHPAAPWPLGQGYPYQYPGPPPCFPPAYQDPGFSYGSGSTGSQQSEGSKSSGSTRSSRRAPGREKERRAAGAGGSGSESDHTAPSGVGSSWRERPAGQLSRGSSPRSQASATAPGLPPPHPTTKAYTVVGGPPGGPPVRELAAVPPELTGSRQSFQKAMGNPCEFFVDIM
Description: HEK293 cells were seeded in 96-well tissue culture plates at a density of 5 × 10 ^3/well. After 16–24 h seeding, cells were co-transfected with HA-FZD4-wt (0.04 µg/well) and GFP-tagged DVL-1 (0.04 µg/well) using PEI (0.25 µL/well) in a final volume of 100 µL/well. After 24 h of transfection, the medium was replaced and supplemented with the indicated compounds diluted in culture medium. After 24 h of treatment, cells were fixed in 3.7% formaldehyde freshly diluted in PBS for 30 min at RT, quenched with 0.1 M glycine/PBS for 30 min at RT, and washed with PBS. Samples were observed under a Leica confocal fluorescent microscope. Inhibition of DVL recruitment was measured by counting the percentage of cells losing GFP-DVL-1 localization on the PM. Experiments were performed in triplicate, and the standard deviations are indicated.
The crucial role played by PDZ domains in the spreading of cellular signals and their aberrant activations in many human diseases makes the PDZ domains very attractive targets for drug discovery. […] To identify new DVL1 inhibitors, we followed a virtual screening approach by fixing as the main filter a pharmacophoric model. We speculated that compound 2, the recently reported inhibitor of NHERF1 PDZ1 domain [26], may be able also to bind the DVL PDZ domain. The activity of compound 2 was assayed in HEK293 cells transiently expressing both HA-tagged-FZD4 (HA-FZD4) and the chimeric construct DVL-GFP. In the absence of HA-FZD4, DVL-GFP is localized in punctate intracellular structures known as signalosomes. In the presence of FZD-4 expression, DVL-GFP is recruited on the PM of the cell showing a drastic change in localization. As previously reported, drugs acting as inhibitors of FZD4/DVL binding reduce the amount of DVL-GFP recruited on the PM. […] Thus, we used the information gained from the binding mode of compound 2 to design a pharmacophore model that would lead to the identification of new DVL1 PDZ binders. At the same time, to better distinguish between the inhibitory activities of DVL1 and NHERF1, we added a new query to the pharmacophore model. Actually, comparing the PDZ structures of the studied proteins, we identified a significant difference. The upper part of the carboxylic binding loop was delimited by Tyr24, Ile79 and Val86 for NHERF1, while we observed Leu12, Val75 and Ile81, respectively, for DVL1. […] This peculiar feature of the DVL1 PDZ was included in our pharmacophore model by adding a hydrophobic query to obtain the required selectivity (Figure S1, Supplementary Materials). […] Thus, for each molecule, we obtained 10 conformations, and all of the proposed binding poses (7000 molecules per 10 conformations) were scored by the fitting to the pharmacophore model. […]

EC50 [nM] | Structure (SMILES)
490 ± 110 | Cc1cc(C)cc(S(=O)(=O)c2c(C(=O)N[C@@H](C)C(=O)NCc3ccncc3)[nH]c3ccc(Cl)cc23)c1 [(S)-1, (S)-5-Chloro-3-((3,5-dimethylphenyl)sulfonyl)-N-(1-oxo-1-((pyridin-4-ylmethyl)amino)propan-2-yl)-1H-indole-2-carboxamide]
29500 ± 900 | Cc1cc(C)cc(S(=O)(=O)c2c(C(=O)N[C@H](C)C(=O)NCc3ccncc3)[nH]c3ccc(Cl)cc23)c1 [(R)-1]
740 ± 80 | Cc1cc(C)cc(S(=O)(=O)c2c(C(=O)NC(C)C(=O)NCc3ccncc3)[nH]c3ccc(Cl)cc23)c1 (stereo not drawn) [Compound 1]
